# Test results from a melting point compilation (Tetko et al.; mined from patent text by program, amines drawn as free bases though some values may be those of a salt).
row,melting point [°C],Compound
1,220 to 225,NNC(=O)Cc1cccc(Cl)n1
2,156 to 158,Cc1cc(C)c2c(c1OCC(=O)O)Cc1sc(SCCC(c3ccccc3)c3ccccc3)nc1-2
3,250 to 252,O=c1[nH]cnc2cc(Cl)c(Oc3ccc(Cl)cc3)cc12
4,118 to 121,Cn1ncc(SCc2ccccc2)c(Br)c1=O
5,139 to 140,CCOCCOC(=O)C(=O)Nc1nc(-c2ccc(OCC)cc2)cs1
6,148 to 149,O=C(O)C=C1SC(=NCCc2ccccc2)N(CCc2ccccc2)C1=O
7,247 to 249,Nc1c(-c2ccc(-c3ccccc3F)cc2)nc2ccc(Cl)cc2c1C(=O)O
8,168,CC(=O)c1ccc(C2CCC(CC(=O)NC3CCN(Cc4ccc(Cl)c(Cl)c4)CC3)CC2)cc1 (configuration not stated)
9,70.2 to 71.3,CC1CCCN(C(=O)c2ccc([N+](=O)[O-])cc2)C1 (configuration not stated)
10,67 to 71,Cc1c(CBr)cccc1C(F)(F)C(F)(F)c1ccccc1
11,109 to 111,CC(C)CNC(=O)C(C)NC(=O)OCc1ccccc1 (configuration not stated)
12,136 to 138,CC1(C)OC(=O)C(Oc2cccc(F)c2)=C1c1ccc(S(C)(=O)=O)cc1
13,146 to 148,CCOc1ccc(NC(=O)C(C)(C)O)cc1
14,192 to 193,O=CNc1ccc(S(=O)(=O)C[N+](=O)[O-])cc1
15,183 to 184,Brc1ccn2nc(Br)nc2c1
16,189 to 192,COC(=O)CCC1(NC(=O)c2cc3c4ccccc4n(C(C)=O)c3cn2)C(=O)N(c2ccccc2)c2ccccc21 (configuration not stated)
17,215 to 218,CS(=O)(=O)Nc1c(C(=O)c2ccccc2)[nH]c2cc(Cl)ccc12
18,108 to 111,CC(C)(C)C(=O)C(C(CC#N)c1ccccc1)n1ccnc1 (configuration not stated)
19,144 to 146,CC(C)C(=O)N1N=Cc2ccccc2C1C#N (configuration not stated)
20,131,CC(COC(=O)NC(=O)C(c1ccccc1)c1ccccc1)c1ccccc1 (racemic)
21,209 to 211,CCCn1nc2c(N)nc3ccccc3c2c1CC1(O)CCOCC1
22,120 to 122,C=CCOc1ccc(C(C)(C)C)cc1C(C(=O)O)c1ccccc1 (configuration not stated)
23,130 to 131,CC(=O)OCC1OC(c2ccc(F)c(Cc3ccc(Cl)s3)c2)C(OC(C)=O)C(OC(C)=O)C1OC(C)=O (configuration not stated)
24,> 300,N#Cc1ccc(-c2cnc(-c3ccc(C#N)cc3)cn2)cc1
25,33,Clc1nsnc1-c1ccccc1
26,83 to 85,COc1nc2ccc(Br)cc2cc1Cc1ccccc1

row,melting point [°C],Compound
1,95 to 96,CCOC(=O)NNC(=O)NCCCC(=O)OC
2,172 to 174,CC(C)N1CCC(CN2CCN(CC3CCN(C(C)C)CC3)C2=C(C#N)C#N)CC1
3,80 to 81,COC(=O)Cc1ccc2c(c1)C(=O)c1sccc1CO2
4,107,Cc1cc(-c2cc(C(F)F)n3nccc3n2)ccc1Cl
5,158 to 162,COc1cc(OC)c(-c2cc3ccccc3[nH]2)cc1C=CC(=O)c1ccc(S(=O)(=O)N(C)C)cc1
6,82 to 85,CSc1ccc(C2=C(c3ccc(CO)cc3)CCC2)cc1
7,74 to 77,CCCC1(S(=O)(=O)CCC(=O)OC)c2ccccc2-c2ccccc21
8,126,CC(c1cc2ccccc2s1)N(OCc1ccccc1)C(N)=O (configuration not stated)
9,61 to 62,CCCCCc1nc(N(C)C)nc(C)c1O
10,162 to 164,Cc1ccc2ncc(C(=O)NC3CCCC3)c(=O)n2c1
11,75,COc1ccc(CN(CCN(C)CCCCCCNC(=O)NCCCOc2cccc(CN3CCCCC3)c2)c2ccccn2)cc1
12,129 to 130,CCCN(c1ncncc1C#N)n1ccc2ccccc21
13,75 to 77,CCOC(=O)c1ccccc1CCc1ccc2oc(-c3nc(C(C)(C)C)cs3)cc2c1
14,158 to 159,O=[N+]([O-])c1ccc(-c2ccc(-c3ccc([N+](=O)[O-])cc3C(F)(F)F)o2)c(C(F)(F)F)c1
15,152,O=C1NOCCN1c1ccc(Cl)c(Cl)c1
16,172 to 173,O=C(Nc1cccnc1)N1CCN(c2nc(-c3cccc(F)c3F)cs2)CC1
17,136 to 139,CCC1(Br)Cc2cc(OCC(=O)O)c(C)c(C)c2C1=O (configuration not stated)
18,185,COc1ccc(-c2nc(C(=O)c3ccc([N+](=O)[O-])c(OC)c3)n3ccccc23)cc1
19,164 to 166,NC(=O)N(O)CCNC(=O)c1cccc(Oc2cc(Cl)cc(Cl)c2)c1
20,> 310,CN(C)c1ccn2nc(S(=O)(=O)Nc3c(Cl)cccc3Cl)nc2n1
21,242 to 243,COc1ccc2cc3ncc(C#N)c(Cl)c3cc2c1
22,246,COc1ccc(N2CCN(c3ccc(-n4cnn(C)c4=O)cc3)CC2)cc1
23,148 to 150,CN(C)c1ccc(C(=O)CCCN2CCC(C(O)(c3ccccc3)c3ccccc3)CC2)cc1
24,69 to 70,CCC(=O)NCCCSc1ccc(Cl)cc1
25,150 to 152,N#CC(=Cc1ccncc1)c1cccnc1
26,200 to 201,COc1ccc(C(=O)Cc2c(Cl)cncc2Cl)c2c(CC(=O)OCc3ccccc3[N+](=O)[O-])coc12

row,melting point [°C],Compound
1,175,Cc1nccc2c3ccc(OCc4ccc(F)cc4)cc3n(Cc3ccc(F)cc3)c12
2,243 to 244,O=C1CC(NC(=O)c2c[nH]c3ccccc23)CCCN1 (configuration not stated)
3,129 to 130,NC(=O)CNC(=O)c1cc(-c2cccc3cc(Cc4cc(F)cc(Cl)c4)sc23)ccc1F
4,301,Cc1cccc(C)c1CNc1cc(C(=O)N(C)C)nc2c(CO)c(C)[nH]c12
5,29.5 to 31.5,COc1cccc(C=O)c1OS(=O)(=O)C(F)(F)F
6,222,CCNS(=O)(=O)c1cccc(NC(=O)c2cnn3c(C(F)F)cc(-c4ccc(C(F)(F)F)c(OCC)c4)nc23)c1
7,209 to 211,NS(=O)(=O)Oc1cccc(-n2cnc(-c3ccccc3)c2)c1
8,193 to 195,Cc1cc(Nc2nccc(N3CCC(C)CC3)n2)[nH]n1
9,106 to 108,CC(C)Oc1ccc(NC(=O)C2(Cl)CC2)cc1C(F)(F)F
10,270 to 271,O=C(CNC(=O)c1n[nH]cc1NC(=O)c1ccccn1)c1ccccc1
11,170 to 173,CS(=O)c1ncc2ccc(=O)n(C3CCCC3)c2n1 (configuration not stated)
12,176 to 180,COc1cc(OC)c(/C=C/S(=O)(=O)Cc2ccc(OC)c(NC(C)C(=O)O)c2)c(OC)c1 (configuration not stated)
13,190 to 191,Cc1ccc(C(=O)Nc2c(NC(=O)CN(C)C)ccc3c2C(=O)c2ccccc2C3=O)cc1
14,49 to 50,Clc1ccc2c(c1)CNC2
15,170 to 171,Cc1c(C)c2c(c(C)c1NC(=O)CC(C)(C)C)C(O)(C1CCCCC1)C(C)(C)O2 (configuration not stated)
16,148 to 151,CN1C(=O)N(c2c(Cl)cccc2Cl)Cc2cnc(NCCc3ccccc3)nc21
17,145 to 146,CSC(=NC(=O)c1cccc(Br)c1)NC(=O)c1ccccc1
18,93 to 94,c1cc2c3c(c1)nc(N1CCOCC1)n3CCC2
19,120 to 122,CNC(=O)c1ccccc1-c1cc(C)no1
20,164 to 168,O=c1nc(N2CCN(c3ccccc3F)CC2)sc2c([N+](=O)[O-])cc(C(F)(F)F)cc12
21,199 to 208,CC(=O)c1ccccc1CN1C(=O)C(NC(=O)Nc2cccc(-c3nnn[nH]3)c2)N=C(C2CCCCC2)c2cccc(C)c21 (configuration not stated)
22,160 to 161,N#Cc1cnn(-c2ccc(Cl)c(Cl)c2Cl)c1N1CCCC1=O
23,169 to 170,Clc1ccc(-c2nccs2)cc1
24,237 to 243,CN1CC(=O)Nc2ccc(-c3cccc([N+](=O)[O-])c3)cc21
25,54,COc1ccc(CN(CCN(C)CCCN=C(NC#N)NCCSCc2csc(NC(=N)N)n2)c2ccccn2)cc1
26,47,O=C(CCCCCCCCC(=O)OCCO)OCCO

row,melting point [°C],Compound
1,90 to 93,COc1ccc2c(c1)C(=O)NCC2
2,74 to 75,COc1ccc2c(N3CCCNCC3)noc2c1
3,228 to 230,N#Cc1ccc(N(Cc2ccc(O)cc2)n2cnnc2)cc1
4,160,O=C(O)CCCc1cc2nc(Cl)ccc2n1S(=O)(=O)c1ccc2c(c1)OCO2
5,208 to 210,CCn1ncc2c1ncc1c(=O)n(C)c3ncnn3c12
6,176 to 179,C=CC(C)ONC(=O)c1nc(-c2ccc(Cl)c(OC)c2F)cc(N)c1Cl (configuration not stated)
7,117 to 119,COc1cc2c(c(C(C)C)c1OC)C(=O)N(CCl)S2(=O)=O
8,236 to 237,Nc1ccc2ccccc2c1-c1c(O)ccc2ccccc12
9,97 to 109,Cc1cccnc1-c1cccc(OC2SCC(O)C(O)C2O)c1 (configuration not stated)
10,76 to 78,CCc1nc2ccc3c(c2o1)C(CCNC(C)=O)CC3 (configuration not stated)
11,264 to 266,CC(C)(C)C(=O)c1c[nH]c2ncc(-c3cccc(NS(=O)(=O)c4ccc(N)cc4)c3)nc12
12,191 to 192,COc1cc(OCc2ccccn2)ccc1/C=C/C(=O)CC(=O)/C=C/c1ccc2ccn(C)c2c1
13,274 to 279,Cc1ccccc1Cc1ccc(-c2cnn3c(O)ncnc23)cc1
14,86 to 88,CC(C)(C)OC(=O)NCc1ccnc(Cl)n1
15,116,CCCCCCCCCCCCSC(CCC)C(=O)Nc1cc(C)c(O)c(C)c1C (configuration not stated)
16,248 to 250,CC(C)(Cn1c(CO)nc2c(N)nc3ccccc3c21)NC(=O)C1CCCCC1
17,117 to 118,CCSc1ccc(-c2nccs2)c2c1C(=O)CC(C)C2 (configuration not stated)
18,143 to 144,CCCCCCCCC(CCCCCCCC)N1C(=O)c2ccc3c4cccc5cccc(c6ccc(c2c36)C1=O)c54
19,112,Cc1ccccc1-c1cc(Cl)ncc1C#N
20,117 to 120,CCOC(=O)c1cnn(-c2cccc(S(=O)(=O)N(C)C)n2)c1Cl
21,> 300,O=c1[nH]c(=O)n2c(c1-c1ccccc1)SCCC2
22,104 to 105,Cc1ccc(NCCC(N)=S)c(C)c1
23,174,Cn1cnnc1C(c1ccc(C#N)cc1)c1cc2c3c(c1)c(-c1cccc(Cl)c1)cc(=O)n3CC2 (configuration not stated)

row,Compound,melting point [°C]
1,CC(C)NCC(O)c1cc(F)cc(C#N)c1 (configuration not stated),85.5 to 86.5
